Target: T1, human plasma kallikrein (Homo sapiens, UniProt P03952)
T1 construct: purchased Abcam
Experiment: In vitro enzyme inhibition of human plasma kallikrein (Pro-Phe-Arg-AMC cleavage)
Format: biochemical
Details: human Plasma Kallikrein (Abcam), substrate Pro-Phe-Arg-AMC, 37° C., Tris-HCl pH 7.5; read-out: hPK IC50
Description: The ability of the compounds disclosed herein to inhibit human plasma kallikrein activity was quantified according to the procedures below.
A 10 mM solution of the test compound was made in DMSO. This solution was serially diluted 1:5 in DMSO to yield 2000, 400, 80, 16, 3.2, 0.64, 0.128, 0.0256 and […] compound test solutions. A control tube containing only DMSO is included. 16 μL of each compound test solution was combined with 384 μL of assay buffer (50 mM Tris-HCl pH 7.5, 150 mM NaCl, 0.01% Triton X-100) to yield a “4× test compound buffer stock”. Separately, a 40 nM solution of human Plasma Kallikrein (Abcam) and a 93.6 μM solution Pro-Phe-Arg-AMC (Bachem) were made using assay buffer. These solutions are hereby referred to as 4× hPK and 2×PFR-AMC, respectively.
60 μL of each 4× test compound buffer stock was combined with 60 μL of 4× hPK to yield 120 μL of “2× test compound buffer stock/2× hPK”. 50 μL was removed from this mixture and placed into duplicate wells on a Microfluor 1Black U-bottom microtiter plate (Thermo Scientific). This plate was incubated for 5 minutes at 37° C. To each well, 50 μL of pre-warmed 2×PFR-AMC was added to start the enzymatic reaction. Cleavage of PFR-AMC was monitored in a Biotek Synergy H4 reader set at 37° C. Readings are taken every 43 seconds for 1 hour. The highest mean velocity over 20 reads (˜15 minutes) is used to calculate the IC50. The IC50 is calculated using the Gen5 (Biotek Instruments).
The ability of the compounds in Table 4 to inhibit human plasma kallikrein activity was determined.

T1 sequence (P03952 391-638 limits assumed): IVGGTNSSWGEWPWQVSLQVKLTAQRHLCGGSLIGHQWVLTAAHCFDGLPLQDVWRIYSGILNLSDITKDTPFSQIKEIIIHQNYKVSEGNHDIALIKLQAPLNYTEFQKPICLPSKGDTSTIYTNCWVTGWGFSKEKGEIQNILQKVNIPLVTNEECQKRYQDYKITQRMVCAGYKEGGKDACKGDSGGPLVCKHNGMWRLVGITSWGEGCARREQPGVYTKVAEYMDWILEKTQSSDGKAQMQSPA
T1 sequence (P03952 20-390 partner limits assumed): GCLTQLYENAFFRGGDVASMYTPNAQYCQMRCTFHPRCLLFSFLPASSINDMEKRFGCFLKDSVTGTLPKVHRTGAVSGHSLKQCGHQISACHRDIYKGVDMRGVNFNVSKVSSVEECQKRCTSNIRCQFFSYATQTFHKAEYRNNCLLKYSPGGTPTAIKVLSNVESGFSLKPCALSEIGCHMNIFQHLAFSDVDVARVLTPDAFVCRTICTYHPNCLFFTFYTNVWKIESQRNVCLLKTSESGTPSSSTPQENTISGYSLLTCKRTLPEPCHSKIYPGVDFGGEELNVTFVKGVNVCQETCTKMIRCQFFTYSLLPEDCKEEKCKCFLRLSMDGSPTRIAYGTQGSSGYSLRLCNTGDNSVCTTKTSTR

| IC50 [nM] | Structure (SMILES) |
| --- | --- |
| ≤ 100 | Cc1cc(N)nc(C)c1CNc1ncnc2nc(Cc3ccc4ncc(Cl)cc4c3)[nH]c12 [Example 19, N-((6-amino-2,4-dimethylpyridin-3-yl)methyl)-8-((3-chloroquinolin-6-yl)methyl)-7H-purin-6-amine] |
| 100 to 1000 | Cn1nc(NCc2cnc3[nH]cc(Cl)c3c2)c2cc(Cc3ccc4ncc(Cl)cc4c3)ccc21 [Example 2, N-((3-chloro-1H-pyrrolo[2,3-b]pyridin-5-yl)methyl)-5-((3-chloroquinolin-6-yl)methyl)-1-methyl-1H-indazol-3-amine] |
| 100 to 1000 | FC(F)(F)c1cnc2ccc(Cc3nc4ncnc(NCc5cnc6[nH]cc(Cl)c6c5)c4[nH]3)cc2c1 [Example 15, N-((3-chloro-1H-pyrrolo[2,3-b]pyridin-5-yl)methyl)-8-((3-(trifluoromethyl)quinolin-6-yl)methyl)-7H-purin-6-amine] |
| ≤ 100 | Nc1nccc2cc(CNc3ncnc4nc(Cc5ccc6ncc(C(F)(F)F)cc6c5)[nH]c34)ccc12 [Example 14, 6-(((8-((3-(trifluoromethyl)quinolin-6-yl)methyl)-7H-purin-6-yl)amino)methyl)isoquinolin-1-amine] |
| ≤ 100 | Fc1cc2[nH]cc(Cl)c2cc1CNc1ncnc2nc(Cc3ccc4ncc(C(F)(F)F)cc4c3)[nH]c12 [Example 11, N-((3-chloro-6-fluoro-1H-indol-5-yl)methyl)-8-((3-(trifluoromethyl)quinolin-6-yl)methyl)-7H-purin-6-amine] |
| 100 to 1000 | O=C(NCc1cc2c(Cl)c[nH]c2cc1F)c1ccc2c(c1)C(c1ccc3ncc(Cl)cc3c1)OC2 (stereo not shown) [Example 21, N-((3-chloro-6-fluoro-1H-indol-5-yl)methyl)-3-(3-chloroquinolin-6-yl)-1,3-dihydroisobenzofuran-5-carboxamide] |
| ≤ 100 | Clc1cnc2ccc(Cc3nc4ncnc(NCc5n[nH]c6ccc(Cl)cc56)c4[nH]3)cc2c1 [Example 6, N-((5-chloro-1H-indazol-3-yl)methyl)-8-((3-chloroquinolin-6-yl)methyl)-7H-purin-6-amine] |
| ≤ 100 | Clc1cnc2ccc(Cc3nc4ncnc(NCc5cnc6[nH]cc(Cl)c6c5)c4[nH]3)cc2c1 [Example 8, N-((3-chloro-1H-pyrrolo[2,3-b]pyridin-5-yl)methyl)-8-((3-chloroquinolin-6-yl)methyl)-7H-purin-6-amine] |
| ≤ 100 | Fc1c(CNc2ncnc3nc(Cc4ccc5ncc(C(F)(F)F)cc5c4)[nH]c23)ccc2[nH]cc(Cl)c12 [Example 13, N-((3-chloro-4-fluoro-1H-indol-5-yl)methyl)-8-((3-(trifluoromethyl)quinolin-6-yl)methyl)-7H-purin-6-amine] |
| 1000 to 10000 | Cc1cc(N)nc(C)c1CNc1nccc2nc(Cc3ccc4ncc(Cl)cc4c3)[nH]c12 [Example 4, N-((6-amino-2,4-dimethylpyridin-3-yl)methyl)-2-((3-chloroquinolin-6-yl)methyl)-3H-imidazo[4,5-c]pyridin-4-amine] |
| 100 to 1000 | Clc1cnc2ccc(Cc3ccc4onc(NCc5cnc6[nH]cc(Cl)c6c5)c4c3)cc2c1 [Example 1, N-((3-chloro-1H-pyrrolo[2,3-b]pyridin-5-yl)methyl)-5-((3-chloroquinolin-6-yl)methyl)benzo[d]isoxazol-3-amine] |
| ≤ 100 | Fc1cc2[nH]cc(Cl)c2cc1CNc1ncnc2nc(Cc3ccc4ncc(Cl)cc4c3)[nH]c12 [Example 5] |
| ≤ 100 | Cc1cc(N)nc(C)c1CNc1ncnc2cn(Cc3ccc4ncc(Cl)cc4c3)nc12 [Example 9, N-((6-amino-2,4-dimethylpyridin-3-yl)methyl)-2-((3-chloroquinolin-6-yl)methyl)-2H-pyrazolo[4,3-d]pyrimidin-7-amine] |
| 100 to 1000 | Clc1c[nH]c2ncc(CNc3ncnc4nc(Cc5ccc6ncccc6c5)[nH]c34)cc12 [Example 17, N-((3-chloro-1H-pyrrolo[2,3-b]pyridin-5-yl)methyl)-8-(quinolin-6-ylmethyl)-7H-purin-6-amine] |
| ≤ 100 | FC(F)(F)c1cnc2ccc(Cc3nc4ncnc(NCc5n[nH]c6ccc(Cl)cc56)c4[nH]3)cc2c1 [Example 12, N-((5-chloro-1H-indazol-3-yl)methyl)-8-((3-(trifluoromethyl)quinolin-6-yl)methyl)-7H-purin-6-amine] |
| 100 to 1000 | Clc1cnc2ccc(Cc3cc4c(NCc5cnc6[nH]cc(Cl)c6c5)n[nH]c4cn3)cc2c1 [Example 20, N-((3-chloro-1H-pyrrolo[2,3-b]pyridin-5-yl)methyl)-5-((3-chloroquinolin-6-yl)methyl)-1H-pyrazolo[3,4-c]pyridin-3-amine] |
| 100 to 1000 | Clc1cnc2ccc(Cc3ccc4[nH]nc(NCc5cnc6[nH]cc(Cl)c6c5)c4c3)cc2c1 [Example 3, N-((3-chloro-1H-pyrrolo[2,3-b]pyridin-5-yl)methyl)-5-((3-chloroquinolin-6-yl)methyl)-1H-indazol-3-amine] |

| Structure (SMILES) | IC50 [nM] |
| --- | --- |
| Cc1cc(N)nc(C)c1CNc1ncnc2nc(Cc3ccc4ncc(C(F)(F)F)cc4c3)[nH]c12 [Example 10, N-((6-amino-2,4-dimethylpyridin-3-yl)methyl)-8-((3-(trifluoromethyl)quinolin-6-yl)methyl)-7H-purin-6-amine] | ≤ 100 |
| Fc1c(CNc2ncnc3nc(Cc4ccc5ncc(Cl)cc5c4)[nH]c23)ccc2[nH]cc(Cl)c12 [Example 7, N-((3-chloro-4-fluoro-1H-indol-5-yl)methyl)-8-((3-chloroquinolin-6-yl)methyl)-7H-purin-6-amine] | ≤ 100 |

Source: patent US20190263818A1 (LifeSci Pharmaceuticals, Inc., priority 2015, published 2019)
